≈ marks a conversion by molar mass, not a printed value. Calls of active or inactive are those of the source. The calls are words filed in the database; no cut-off is given here.
Tested on: P388
Assay: Cytotoxicity against mouse P388 cells after 48 hrs by sulforhodamine B assay
Type: functional
Details: P388, 48 h, read-out: ED50 (the source's name)
Work on COc1cc(/C=C/[N+](=O)[O-])ccc1O yielded an EC50 of 0.18 µg/mL (≈ 0.922 µM).
With COc1cc(/C=C/[N+](=O)[O-])cc(OC)c1O the EC50 was 2.2 µg/mL (≈ 9.77 µM).

Tested on: Escherichia coli
Assay: Antimicrobial activity against Escherichia coli ATCC 25922 assessed clear zone in inhibition per disk by CLSI disk diffusion susceptibility assay
Type: functional
Details: not given
COc1cc(/C=C/[N+](=O)[O-])ccc1O showed an MIC of 6.25 µg.
COc1cc(/C=C/[N+](=O)[O-])cc(OC)c1O gave an MIC greater than 100 µg.

Tested on: Stenotrophomonas maltophilia
Assay: Antimicrobial activity against Stenotrophomonas maltophilia ATCC 13637 by broth microdilution susceptibility assay
Type: functional
Details: not given
Work on COc1cc(/C=C/[N+](=O)[O-])ccc1O yielded an MIC greater than 64 µg/mL.
COc1cc(/C=C/[N+](=O)[O-])cc(OC)c1O showed an MIC greater than 64 µg/mL.

Tested on: KM-20L2
Assay: Cytotoxicity against human KM20L2 cells after 48 hrs by sulforhodamine B assay
Type: functional
Details: KM-20L2, 48 h
For COc1cc(/C=C/[N+](=O)[O-])ccc1O, the GI50 was 1.1 µg/mL (≈ 5.64 µM).
COc1cc(/C=C/[N+](=O)[O-])cc(OC)c1O showed a GI50 of 1.1 µg/mL (≈ 4.88 µM).

Tested on: Neisseria gonorrhoeae
Assay: Antimicrobial activity against Neisseria gonorrhoeae ATCC 49226 after 24 hrs by broth microdilution susceptibility assay
Type: functional
Details: ATCC 49226, 24 h
COc1cc(/C=C/[N+](=O)[O-])ccc1O showed an MBC of 4 µg/mL (≈ 20.5 µM).
COc1cc(/C=C/[N+](=O)[O-])cc(OC)c1O showed an MBC of 4 µg/mL (≈ 17.8 µM).

Tested on: Enterobacter cloacae
Assay: Antimicrobial activity against Enterobacter cloacae ATCC 13047 assessed clear zone in inhibition per disk by CLSI disk diffusion susceptibility assay
Type: functional
Details: not given
Work on COc1cc(/C=C/[N+](=O)[O-])ccc1O yielded an MIC greater than 100 µg.
Work on COc1cc(/C=C/[N+](=O)[O-])cc(OC)c1O yielded an MIC greater than 100 µg.

Tested on: Enterococcus faecalis
Assay: Antimicrobial activity against Enterococcus faecalis ATCC 29212 assessed clear zone in inhibition per disk by CLSI disk diffusion susceptibility assay
Type: functional
Details: not given
With COc1cc(/C=C/[N+](=O)[O-])ccc1O the MIC was 25 µg.
In the case of COc1cc(/C=C/[N+](=O)[O-])cc(OC)c1O, the MIC is reported as 50 µg.

Tested on: SK-MEL-5
Assay: Cytotoxicity against human SK-MEL-5 cells after 48 hrs by sulforhodamine B assay
Type: functional
Details: not given
For COc1cc(/C=C/[N+](=O)[O-])ccc1O, the GI50 was “inactive”.
With COc1cc(/C=C/[N+](=O)[O-])cc(OC)c1O the GI50 was “inactive”.

Tested on: not listed separately
Assay: Inhibition of tubulin polymerization
Details: not given
In the case of COc1cc(/C=C/[N+](=O)[O-])ccc1O, the IC50 is reported as 9.3 µM.
COc1cc(/C=C/[N+](=O)[O-])cc(OC)c1O gave an IC50 of 8.5 µM.

Tested on: NCI-H460
Assay: Cytotoxicity against human NCI-H460 cells after 48 hrs by sulforhodamine B assay
Type: functional
Details: NCI-H460, 48 h
COc1cc(/C=C/[N+](=O)[O-])ccc1O showed a GI50 of 0.34 µg/mL (≈ 1.74 µM).
In the case of COc1cc(/C=C/[N+](=O)[O-])cc(OC)c1O, the GI50 is reported as 0.38 µg/mL (≈ 1.69 µM).

Tested on: Neisseria gonorrhoeae
Assay: Antimicrobial activity against Neisseria gonorrhoeae ATCC 49226 assessed clear zone of inhibition measured per disk by CLSI disk diffusion susceptibility assay
Type: functional
Details: not given
Compound COc1cc(/C=C/[N+](=O)[O-])ccc1O has an MIC of 0.78 µg.
With COc1cc(/C=C/[N+](=O)[O-])cc(OC)c1O the MIC was 1.56 µg.

Tested on: DU-145
Assay: Cytotoxicity against human DU145 cells after 48 hrs by sulforhodamine B assay
Type: functional
Details: DU-145, 48 h
COc1cc(/C=C/[N+](=O)[O-])ccc1O showed a GI50 of 0.38 µg/mL (≈ 1.95 µM).
With COc1cc(/C=C/[N+](=O)[O-])cc(OC)c1O the GI50 was 0.36 µg/mL (≈ 1.6 µM).

Tested on: Staphylococcus aureus
Assay: Antimicrobial activity against Staphylococcus aureus ATCC 29213 assessed clear zone in inhibition per disk by CLSI disk diffusion susceptibility assay
Type: functional
Details: not given
In the case of COc1cc(/C=C/[N+](=O)[O-])ccc1O, the MIC is reported as 12.5 µg.
COc1cc(/C=C/[N+](=O)[O-])cc(OC)c1O gave an MIC greater than 100 µg.

Tested on: Cryptococcus neoformans
Assay: Antifungal activity against Cryptococcus neoformans ATCC 90112 after 48 hrs by broth microdilution susceptibility assay
Type: functional
Details: ATCC 90112, 48 h
Compound COc1cc(/C=C/[N+](=O)[O-])ccc1O has an MFC of 16 µg/mL (≈ 82 µM).
Compound COc1cc(/C=C/[N+](=O)[O-])cc(OC)c1O has an MFC of 64 µg/mL (≈ 284 µM).

Tested on: Candida albicans
Assay: Antifungal activity against Candida albicans ATCC 90028 after 48 hrs by broth microdilution susceptibility assay
Type: functional
Details: ATCC 90028, 48 h
With COc1cc(/C=C/[N+](=O)[O-])ccc1O the MIC was 16 µg/mL (≈ 82 µM).
In the case of COc1cc(/C=C/[N+](=O)[O-])cc(OC)c1O, the MIC is reported as greater than 64 µg/mL.

Tested on: SF-268
Assay: Cytotoxicity against human SF268 cells after 48 hrs by sulforhodamine B assay
Type: functional
Details: not given
For COc1cc(/C=C/[N+](=O)[O-])ccc1O, the GI50 was “inactive”.

Same assay, conditions: SF-268, 48 h
In the case of COc1cc(/C=C/[N+](=O)[O-])cc(OC)c1O, the GI50 is reported as 0.54 µg/mL (≈ 2.4 µM).

Tested on: Streptococcus pneumoniae
Assay: Antimicrobial activity against Streptococcus pneumoniae ATCC 6303 by broth microdilution susceptibility assay
Type: functional
Details: not given
COc1cc(/C=C/[N+](=O)[O-])ccc1O showed an MIC greater than 64 µg/mL.
Compound COc1cc(/C=C/[N+](=O)[O-])cc(OC)c1O has an MIC of 64 µg/mL (≈ 284 µM).

Tested on: Candida albicans
Assay: Antifungal activity against Candida albicans ATCC 90028 after 24 hrs by broth microdilution susceptibility assay
Type: functional
Details: ATCC 90028, 24 h
COc1cc(/C=C/[N+](=O)[O-])ccc1O gave an MFC of 16 µg/mL (≈ 82 µM).

Tested on: Cryptococcus neoformans
Assay: Antimicrobial activity against Cryptococcus neoformans ATCC 90112 assessed clear zone in inhibition per disk by CLSI disk diffusion susceptibility assay
Type: functional
Details: not given
COc1cc(/C=C/[N+](=O)[O-])ccc1O showed an MIC of 3.12 µg.
With COc1cc(/C=C/[N+](=O)[O-])cc(OC)c1O the MIC was 25 µg.

Tested on: Enterobacter cloacae
Assay: Antimicrobial activity against Enterobacter cloacae ATCC 13047 by broth microdilution susceptibility assay
Type: functional
Details: not given
Compound COc1cc(/C=C/[N+](=O)[O-])ccc1O has an MIC greater than 64 µg/mL.
COc1cc(/C=C/[N+](=O)[O-])cc(OC)c1O showed an MIC greater than 64 µg/mL.

Tested on: Streptococcus pneumoniae
Assay: Antimicrobial activity against Streptococcus pneumoniae ATCC 6303 assessed clear zone in inhibition per disk by CLSI disk diffusion susceptibility assay
Type: functional
Details: not given
For COc1cc(/C=C/[N+](=O)[O-])ccc1O, the MIC was 3.12 µg.
Compound COc1cc(/C=C/[N+](=O)[O-])cc(OC)c1O has an MIC of 6.25 µg.

Tested on: BXPC-3
Assay: Cytotoxicity against human BxPC3 cells after 48 hrs by sulforhodamine B assay
Type: functional
Details: BXPC-3, 48 h
For COc1cc(/C=C/[N+](=O)[O-])ccc1O, the GI50 was 1.2 µg/mL (≈ 6.15 µM).
For COc1cc(/C=C/[N+](=O)[O-])cc(OC)c1O, the GI50 was 1.5 µg/mL (≈ 6.66 µM).

Tested on: Staphylococcus aureus
Assay: Antimicrobial activity against Staphylococcus aureus ATCC 29213 by broth microdilution susceptibility assay
Type: functional
Details: not given
With COc1cc(/C=C/[N+](=O)[O-])ccc1O the MIC was greater than 64 µg/mL.
In the case of COc1cc(/C=C/[N+](=O)[O-])cc(OC)c1O, the MIC is reported as greater than 64 µg/mL.

Tested on: Candida albicans
Assay: Antimicrobial activity against Candida albicans ATCC 90028 assessed clear zone in inhibition per disk by CLSI disk diffusion susceptibility assay
Type: functional
Details: not given
COc1cc(/C=C/[N+](=O)[O-])ccc1O showed an MIC of 6.25 µg.
For COc1cc(/C=C/[N+](=O)[O-])cc(OC)c1O, the MIC was 50 µg.

Tested on: Stenotrophomonas maltophilia
Assay: Antimicrobial activity against Stenotrophomonas maltophilia ATCC 13637 assessed clear zone in inhibition per disk by CLSI disk diffusion susceptibility assay
Type: functional
Details: not given
For COc1cc(/C=C/[N+](=O)[O-])ccc1O, the MIC was 50 µg.
Work on COc1cc(/C=C/[N+](=O)[O-])cc(OC)c1O yielded an MIC of 50 µg.

Tested on: OVCAR-3
Assay: Cytotoxicity against human OVCAR-3 cells after 48 hrs by sulforhodamine B assay
Type: functional
Details: not given
With COc1cc(/C=C/[N+](=O)[O-])cc(OC)c1O the GI50 was “inactive”.

Same assay, conditions: OVCAR-3, 48 h
With COc1cc(/C=C/[N+](=O)[O-])ccc1O the GI50 was 0.48 µg/mL (≈ 2.46 µM).

Tested on: A498
Assay: Cytotoxicity against human A498 cells after 48 hrs by sulforhodamine B assay
Type: functional
Details: not given
In the case of COc1cc(/C=C/[N+](=O)[O-])ccc1O, the GI50 is reported as “inactive”.
For COc1cc(/C=C/[N+](=O)[O-])cc(OC)c1O, the GI50 was “inactive”.

Tested on: Neisseria gonorrhoeae
Assay: Antimicrobial activity against Neisseria gonorrhoeae ATCC 49226 by broth microdilution susceptibility assay
Type: functional
Details: not given
In the case of COc1cc(/C=C/[N+](=O)[O-])ccc1O, the MIC is reported as 4 µg/mL (≈ 20.5 µM).
In the case of COc1cc(/C=C/[N+](=O)[O-])cc(OC)c1O, the MIC is reported as 4 µg/mL (≈ 17.8 µM).

Tested on: Escherichia coli
Assay: Antimicrobial activity against Escherichia coli ATCC 25922 by broth microdilution susceptibility assay
Type: functional
Details: not given
In the case of COc1cc(/C=C/[N+](=O)[O-])ccc1O, the MIC is reported as greater than 64 µg/mL.
Compound COc1cc(/C=C/[N+](=O)[O-])cc(OC)c1O has an MIC greater than 64 µg/mL.

Tested on: SF-295
Assay: Cytotoxicity against human SF295 cells after 48 hrs by sulforhodamine B assay
Type: functional
Details: not given
For COc1cc(/C=C/[N+](=O)[O-])cc(OC)c1O, the GI50 was “inactive”.

Same assay, conditions: SF-295, 48 h
In the case of COc1cc(/C=C/[N+](=O)[O-])ccc1O, the GI50 is reported as 0.37 µg/mL (≈ 1.9 µM).

Tested on: Micrococcus luteus
Assay: Antimicrobial activity against Micrococcus luteus Presque Isle 456 assessed clear zone in inhibition per disk by CLSI disk diffusion susceptibility assay
Type: functional
Details: not given
For COc1cc(/C=C/[N+](=O)[O-])ccc1O, the MIC was 50 µg.
COc1cc(/C=C/[N+](=O)[O-])cc(OC)c1O gave an MIC greater than 100 µg.

Tested on: Micrococcus luteus
Assay: Antimicrobial activity against Micrococcus luteus Presque Isle 456 by broth microdilution susceptibility assay
Type: functional
Details: not given
Work on COc1cc(/C=C/[N+](=O)[O-])ccc1O yielded an MIC greater than 64 µg/mL.
COc1cc(/C=C/[N+](=O)[O-])cc(OC)c1O gave an MIC greater than 64 µg/mL.

Tested on: Enterococcus faecalis
Assay: Antimicrobial activity against Enterococcus faecalis ATCC 29212 by broth microdilution susceptibility assay
Type: functional
Details: not given
Work on COc1cc(/C=C/[N+](=O)[O-])ccc1O yielded an MIC greater than 64 µg/mL.
Work on COc1cc(/C=C/[N+](=O)[O-])cc(OC)c1O yielded an MIC greater than 64 µg/mL.

Tested on: Streptococcus pneumoniae
Assay: Antimicrobial activity against Streptococcus pneumoniae ATCC 6303 after 24 hrs by broth microdilution susceptibility assay
Type: functional
Details: ATCC 6303, 24 h
With COc1cc(/C=C/[N+](=O)[O-])cc(OC)c1O the MBC was greater than 64 µg/mL.

Tested on: MCF7
Assay: Cytotoxicity against human MCF7 cells after 48 hrs by sulforhodamine B assay
Type: functional
Details: not given
For COc1cc(/C=C/[N+](=O)[O-])ccc1O, the GI50 was “inactive”.

Same assay, conditions: MCF7, 48 h
Compound COc1cc(/C=C/[N+](=O)[O-])cc(OC)c1O has a GI50 of 0.44 µg/mL (≈ 1.95 µM).

Tested on: Cryptococcus neoformans
Assay: Antifungal activity against Cryptococcus neoformans ATCC 90112 after 72 hrs by broth microdilution susceptibility assay
Type: functional
Details: ATCC 90112, 72 h
With COc1cc(/C=C/[N+](=O)[O-])ccc1O the MIC was 16 µg/mL (≈ 82 µM).
For COc1cc(/C=C/[N+](=O)[O-])cc(OC)c1O, the MIC was 64 µg/mL (≈ 284 µM).

Reference: ChEMBL document CHEMBL1152576, “E-Combretastatin and E-resveratrol structural modifications: antimicrobial and cancer cell growth inhibitory beta-E-nitrostyrenes” (Bioorg Med Chem, 2009)
